# Test results reported in patent publication US20100227859A1, “TRICYCLIC COMPOUNDS AS MATRIX METALLOPROTEINASE INHIBITORS” (priority 2007, published 2010).
# Target: purified human MMP-12 enzyme (Homo sapiens, UniProt P39900)
# Assay: MMP-12 FRET assay
# Type: biochemical
# Conditions: substrate 20 μM, room temperature
# Method in brief: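 Enzyme pre-incubated 30 min at room temperature with compound in 50 mM HEPES pH 7.4, 100 mM NaCl, 5 mM CaCl2, 0.005% Brij-35, 10% DMSO final. Reaction started with 20 μM MCA-Pro-Leu-Gly-Leu-Dpa(DNP)-Ala-Arg, and initial cleavage rate read over 30 min (λex 325, λem 395 nm). IC50 from slope-factor inhibition fit.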
# Sequence of purified human MMP-12 enzyme (P39900 106-470): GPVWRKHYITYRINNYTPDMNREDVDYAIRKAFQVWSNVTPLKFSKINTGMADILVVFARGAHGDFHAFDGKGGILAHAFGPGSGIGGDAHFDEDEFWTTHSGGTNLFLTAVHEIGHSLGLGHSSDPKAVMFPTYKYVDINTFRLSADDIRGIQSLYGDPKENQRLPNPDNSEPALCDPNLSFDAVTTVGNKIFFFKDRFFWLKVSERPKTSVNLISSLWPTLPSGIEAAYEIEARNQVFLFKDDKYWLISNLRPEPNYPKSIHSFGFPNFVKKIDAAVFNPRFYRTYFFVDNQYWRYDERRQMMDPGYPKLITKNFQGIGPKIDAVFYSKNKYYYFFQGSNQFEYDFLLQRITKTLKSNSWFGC
row,IC50,Compound
1,3.1 nM,"COc1ccc2nc(-c3ccc4c(c3)oc3ccc(S(=O)(=O)N[C@@H](C(=O)O)C(C)C)cc34)sc2c1 [Compound 296, (R)-2-(7-(6-methoxybenzo[d]thiazol-2-yl)dibenzo[b,d]furan-2-sulfonamido)-3-methylbutanoic acid]"
2,< 1.5 nM,"CC(C)[C@H](NS(=O)(=O)c1ccc2c(c1)oc1ccc(-c3noc(-c4ccc(F)cc4F)n3)cc12)C(=O)O [Compound 269, (S)-2-(8-(5-(2,4-difluorophenyl)-1,2,4-oxadiazol-3-yl)dibenzo[b,d]furan-3-sulfonamido)-3-methylbutanoic acid]"
3,< 1.5 nM,"CC(C)[C@@H](NS(=O)(=O)c1ccc2oc3cc(-c4ccsc4)ccc3c2c1)C(=O)O [Compound 97, (R)-3-methyl-2-(7-(thiophen-3-yl)dibenzo[b,d]furan-2-sulfonamido)butanoic acid]"
4,< 1.5 nM,"Cc1csc(-c2ccc3oc4cc(S(=O)(=O)N[C@H](C(=O)O)C(C)C)ccc4c3c2)c1 [Compound 33, (S)-3-methyl-2-(8-(4-methylthiophen-2-yl)dibenzo[b,d]furan-3-sulfonamido)butanoic acid]"
5,< 1.5 nM,"CC(C)[C@H](NS(=O)(=O)c1ccc2c(c1)oc1cc(-c3sc(Cl)c(Cl)c3Cl)ccc12)C(=O)O [Compound 86, (S)-3-methyl-2-(7-(3,4,5-trichlorothiophen-2-yl)dibenzo[b,d]furan-3-sulfonamido)butanoic acid]"
6,90 nM,"CC(C)(C)c1nc(-c2ccc3c(c2)oc2ccc(S(=O)(=O)N[C@H](C(=O)O)c4ccccc4)cc23)no1 [Compound 281, (S)-2-(7-(5-tert-butyl-1,2,4-oxadiazol-3-yl)dibenzo[b,d]furan-2-sulfonamido)-2-phenylacetic acid]"
7,8 nM,"CC(C)[C@@H](NS(=O)(=O)c1ccc2oc3cc(-c4noc(C(C)(C)C)n4)ccc3c2c1)C(=O)O [Compound 133, (R)-2-(7-(5-tert-butyl-1,2,4-oxadiazol-3-yl)dibenzo[b,d]furan-2-sulfonamido)-3-methylbutanoic acid]"
8,< 1.5 nM,"CC(C)[C@H](NS(=O)(=O)c1ccc2c(c1)oc1ccc(-c3noc(-c4ccc(Cl)cc4Cl)n3)cc12)C(=O)O [Compound 270, (S)-2-(8-(5-(2,4-dichlorophenyl)-1,2,4-oxadiazol-3-yl)dibenzo[b,d]furan-3-sulfonamido)-3-methylbutanoic acid]"
9,131 nM,"Cc1nc(CC(C)C)sc1-c1ccc2c(c1)oc1ccc(S(=O)(=O)N[C@H](C(=O)O)C(C)C)cc12 [Compound 247, (S)-2-(7-(2-isobutyl-4-methylthiazol-5-yl)dibenzo[b,d]furan-2-sulfonamido)-3-methylbutanoic acid]"
10,19 nM,"CC(C)[C@H](NS(=O)(=O)c1ccc2c(c1)sc1ccc(-c3ccsc3Cl)cc12)C(=O)O [Compound 52, (S)-2-(8-(2-chlorothiophen-3-yl)dibenzo[b,d]thiophene-3-sulfonamido)-3-methylbutanoic acid]"
11,1.9 nM,"CC(C)[C@H](NS(=O)(=O)c1ccc2c(c1)oc1cc(C(=N)NO)ccc12)C(=O)O [Compound 186, (S)-2-(7-(N-hydroxycarbamimidoyl)dibenzo[b,d]furan-3-sulfonamido)-3-methylbutanoic acid]"
12,9.1 nM,"CC(C)(C)c1nc(-c2ccc3oc4cc(S(=O)(=O)N[C@H](C(=O)O)C(C)(C)C)ccc4c3c2)no1 [Compound 257, (S)-2-(8-(5-tert-butyl-1,2,4-oxadiazol-3-yl)dibenzo[b,d]furan-3-sulfonamido)-3,3-dimethylbutanoic acid]"
13,< 1.5 nM,"C/C=C\c1ccc2oc3cc(S(=O)(=O)N[C@H](C(=O)O)C(C)C)ccc3c2c1 [Compound 67, (S,Z)-3-methyl-2-(8-(prop-1-enyl)dibenzo[b,d]furan-3-sulfonamido)butanoic acid]"
14,65 nM,"COc1ccc(-c2ccc3sc4cc(S(=O)(=O)N[C@H](C(=O)O)C(C)C)ccc4c3c2)cn1 [Compound 55, (S)-2-(8-(6-methoxypyridin-3-yl)dibenzo[b,d]thiophene-3-sulfonamido)-3-methylbutanoic acid]"
15,289 nM,"CC(C)[C@H](NS(=O)(=O)c1ccc2c(c1)sc1ccc(-c3cc4ccccc4s3)cc12)C(=O)O [Compound 46, (S)-2-(8-(benzo[b]thiophen-2-yl)dibenzo[b,d]thiophene-3-sulfonamido)-3-methylbutanoic acid]"
16,2.5 nM,"CC(C)[C@H](NS(=O)(=O)c1ccc2c(c1)oc1ccc(-c3noc(C4CCCC4)n3)cc12)C(=O)O [Compound 263, (S)-2-(8-(5-cyclopentyl-1,2,4-oxadiazol-3-yl)dibenzo[b,d]furan-3-sulfonamido)-3-methylbutanoic acid]"
17,4 nM,"CC(C)[C@H](NS(=O)(=O)c1ccc2c(c1)oc1ccc(-c3noc(Cc4ccccc4)n3)cc12)C(=O)O [Compound 266, (S)-2-(8-(5-benzyl-1,2,4-oxadiazol-3-yl)dibenzo[b,d]furan-3-sulfonamido)-3-methylbutanoic acid]"
18,< 1.5 nM,"CC(C)[C@H](NS(=O)(=O)c1ccc2c(c1)oc1ccc(C#Cc3cncn3C)cc12)C(=O)O [Compound 15, (S)-3-methyl-2-(8-((1-methyl-1H-imidazol-5-yl)ethynyl)dibenzo[b,d]furan-3-sulfonamido)butanoic acid]"

row,IC50,Compound
1,6.2 nM,"CC(C)Cn1cc(-c2ccc3oc4cc(S(=O)(=O)N[C@H](C(=O)O)C(C)C)ccc4c3c2)cn1 [Compound 159, (S)-2-(8-(1-isobutyl-1H-pyrazol-4-yl)dibenzo[b,d]furan-3-sulfonamido)-3-methylbutanoic acid]"
2,< 1.5 nM,"CC(C)[C@H](NS(=O)(=O)c1ccc2c(c1)oc1ccc(-c3ccccc3)cc12)C(=O)O [Compound 309, (S)-3-methyl-2-(8-phenyldibenzo[b,d]furan-3-sulfonamido)butanoic acid]"
3,3.8 nM,"(R)-2-(7-(5-ethyl-1,2,4-oxadiazol-3-yl)dibenzo[b,d]furan-2-sulfonamido)-3-methylbutanoic acid [Compound 140]"
4,< 1.5 nM,"CCc1ccc(-c2ccc3oc4cc(S(=O)(=O)N[C@H](C(=O)O)C(C)C)ccc4c3c2)s1 [Compound 196, (S)-2-(8-(5-ethylthiophen-2-yl)dibenzo[b,d]furan-3-sulfonamido)-3-methylbutanoic acid]"
5,4.4 nM,"CC(C)[C@@H](NS(=O)(=O)c1ccc2oc3cc(-c4ccc(Cl)o4)ccc3c2c1)C(=O)O [Compound 290, (R)-2-(7-(5-chlorofuran-2-yl)dibenzo[b,d]furan-2-sulfonamido)-3-methylbutanoic acid]"
6,34 nM,"CC(C)[C@H](NS(=O)(=O)c1ccc2oc3cc(-c4noc(C(C)(C)C)n4)ccc3c2c1)C(=O)O [Compound 276, (S)-2-(7-(5-tert-butyl-1,2,4-oxadiazol-3-yl)dibenzo[b,d]furan-2-sulfonamido)-3-methylbutanoic acid]"
7,4.1 nM,"CC(C)(C)c1nc(-c2ccc3c(c2)oc2ccc(S(=O)(=O)N[C@H](Cc4ccccc4)C(=O)O)cc23)no1 [Compound 275, (R)-2-(7-(5-tert-butyl-1,2,4-oxadiazol-3-yl)dibenzo[b,d]furan-2-sulfonamido)-3-phenylpropanoic acid]"
8,21 nM,"CC(C)(C)c1nc(-c2ccc3oc4cc(S(=O)(=O)N[C@H](C(=O)O)c5ccccc5)ccc4c3c2)no1 [Compound 254, (S)-2-(8-(5-tert-butyl-1,2,4-oxadiazol-3-yl)dibenzo[b,d]furan-3-sulfonamido)-2-phenylacetic acid]"
9,2.7 nM,"COc1ccc2nc(-c3ccc4oc5cc(S(=O)(=O)N[C@H](C(=O)O)C(C)C)ccc5c4c3)sc2c1 [Compound 208, (S)-2-(8-(6-methoxybenzo[d]thiazol-2-yl)dibenzo[b,d]furan-3-sulfonamido)-3-methylbutanoic acid]"
10,8.4 nM,"CC(C)[C@H](NS(=O)(=O)c1ccc2c(c1)oc1ccc(-c3ccc(-c4nnn[nH]4)s3)cc12)C(=O)O [Compound 207, (S)-2-(8-(5-(1H-tetrazol-5-yl)thiophen-2-yl)dibenzo[b,d]furan-3-sulfonamido)-3-methylbutanoic acid]"
11,14 nM,"CC(C)[C@@H](NS(=O)(=O)c1ccc2oc3cc(-c4noc(C(F)(F)F)n4)ccc3c2c1)C(=O)O [Compound 141, (R)-3-methyl-2-(7-(5-(trifluoromethyl)-1,2,4-oxadiazol-3-yl)dibenzo[b,d]furan-2-sulfonamido)butanoic acid]"
12,< 1.5 nM,"COc1ccc2sc(-c3ccc4oc5cc(S(=O)(=O)N[C@H](C(=O)O)C(C)C)ccc5c4c3)nc2c1 [Compound 225, (S)-2-(8-(5-methoxybenzo[d]thiazol-2-yl)dibenzo[b,d]furan-3-sulfonamido)-3-methylbutanoic acid]"
13,< 1.5 nM,"CC(C)[C@@H](NS(=O)(=O)c1ccc2c(c1)sc1cc(-c3ccco3)ccc12)C(=O)O [Compound 129, (R)-2-(7-(furan-2-yl)dibenzo[b,d]thiophene-3-sulfonamido)-3-methylbutanoic acid]"
14,1.7 nM,"CC(C)[C@H](NS(=O)(=O)c1ccc2c(c1)oc1ccc(-c3cc4ccccc4s3)cc12)C(=O)O [Compound 13, (S)-2-(8-(benzo[b]thiophen-2-yl)dibenzo[b,d]furan-3-sulfonamido)-3-methylbutanoic acid]"
15,39 nM,"CCN(C#Cc1ccc2oc3cc(S(=O)(=O)N[C@H](C(=O)O)C(C)C)ccc3c2c1)CC [Compound 39, (S)-2-(8-((diethylamino)ethynyl)dibenzo[b,d]furan-3-sulfonamido)-3-methylbutanoic acid]"
16,22 nM,"Cc1nn(C)c(C)c1-c1ccc2oc3cc(S(=O)(=O)N[C@H](C(=O)O)C(C)C)ccc3c2c1 [Compound 160, (S)-3-methyl-2-(8-(1,3,5-trimethyl-1H-pyrazol-4-yl)dibenzo[b,d]furan-3-sulfonamido)butanoic acid]"
17,< 1.5 nM,"CC(C)[C@@H](NS(=O)(=O)c1ccc2oc3cc(-c4ccco4)ccc3c2c1)C(=O)O [Compound 98, (R)-2-(7-(furan-2-yl)dibenzo[b,d]furan-2-sulfonamido)-3-methylbutanoic acid]"
